# Measured values published in ChEMBL document CHEMBL1141327, “Planktocyclin, a cyclooctapeptide protease inhibitor produced by the freshwater cyanobacterium Planktothrix rubescens” (J Nat Prod, 2007).
# Peptide text beside a SMILES is read from it.
# What was measured:
# [1] = target: Caspase-8 (Homo sapiens, UniProt Q14790); assay: Inhibition of human recombinant caspase 8 expressed in Escherichia coli
# [2] = Inhibition of porcine trypsin; design: species or system Sus scrofa
# [3] = Inhibition of bovine alpha chymotrypsin; design: species or system Bos taurus
# [4] = target: Cathepsin B (Bos taurus, UniProt P07688); assay: Inhibition of bovine Cathepsin B
# Caspase-8, sequence (Q14790 217-374 limits assumed): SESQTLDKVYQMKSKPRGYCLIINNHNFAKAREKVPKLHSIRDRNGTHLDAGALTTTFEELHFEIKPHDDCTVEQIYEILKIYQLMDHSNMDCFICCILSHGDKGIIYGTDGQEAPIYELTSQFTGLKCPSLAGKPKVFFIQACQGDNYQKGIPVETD
# Caspase-8, sequence (Q14790 385-479 limits assumed): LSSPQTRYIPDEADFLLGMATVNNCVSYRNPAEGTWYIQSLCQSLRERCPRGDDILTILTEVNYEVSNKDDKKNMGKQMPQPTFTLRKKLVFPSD
structure (smiles),measurement,setting,value
CSCC[C@@H]1NC(=O)[C@H](C(C)C)NC(=O)[C@H](CC(C)C)NC(=O)CNC(=O)[C@@H]2CCCN2C(=O)[C@H](C(C)C)NC(=O)CNC(=O)[C@H](Cc2ccccc2)NC1=O [PLANKTOCYCLIN] (cyclo(FGVPGLVM)),IC50,[1],93 µM
same,IC50,[2],0.104 µM
same,IC50,[3],10 µM
same,IC50,[4],> 500 µM
